Source: the METLIN SMRT retention time set (Domingo-Almenara et al. 2019)

Assay: gradient 5% acetonitrile 3 min, to 50% in 2 min, to 85% in 15 min, held 3 min, 100 µL/min
Settings: column: Zorbax Extend-C18 2.1 x 50 mm; eluents: water / acetonitrile, 0.1% formic acid
Summary of the method: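 Mixtures of ~100 pure standards were chromatographed on a Zorbax Extend-C18 column (2.1 × 50 mm, 1.8 μm) at 100 μL/min using water and acetonitrile, each with 0.1% formic acid. Detection used a quadrupole time-of-flight mass spectrometer in positive and negative ionization mode, and data collection spanned 3 months. Retention time was obtained from adduct peaks picked computationally and each checked manually.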

Row | RP-LC retention time | Structure (SMILES)
1 | 669 s | COCc1cc(=O)n2c(n1)N(Cc1cccc(C#N)c1)CC2
2 | 575 s | O=C(NCCc1ccccn1)C1CCc2nc(N3CCCCC3)ncc2C1 (configuration not stated)
3 | 666 s | Cc1cc(-c2nnc(-c3ccccc3)o2)c(C)n1CC(=O)N1CCN(C2CCCCC2)CC1
4 | 801 s | CC(=O)N1c2ccc(S(=O)(=O)NCc3ccc4c(c3)CCN4C(=O)C(C)C)cc2CC1C (configuration not stated)
5 | 1030 s | COc1ccc(-c2csc3ncnc(SCc4c(C)noc4C)c23)cc1
6 | 742 s | O=C(NCc1ccc2c(c1)OCO2)C1CCN(c2ccc(SCc3ccccc3)nn2)CC1
7 | 1040 s | Cc1csc(-c2cc(S(=O)(=O)Nc3ccc(F)cc3Cl)c(C)s2)n1
8 | 678 s | Cc1ccccc1-c1nc2cnccn2c1NCCC(=O)NC1CCCCC1
9 | 1050 s | O=C(Cc1ccc(Cl)cc1)N1CCCn2nc(-c3ccc(Cl)cc3)cc2C1
10 | 639 s | O=C(NC1CC(=O)N(C2CC2)C1)c1ccc(Cl)s1 (configuration not stated)
11 | 771 s | Cc1nnc(N2CCCC(C(=O)NCc3ccccc3F)C2)c2nn(-c3ccc(Cl)cc3)c(C)c12 (configuration not stated)
12 | 1190 s | COc1ccccc1NC(=O)c1csc2c1CCCC2
13 | 714 s | Cc1oc(-c2[nH]ncc2C(=O)N(C)C)cc1S(=O)(=O)Nc1ccc(Cl)cc1F
14 | 869 s | COc1ccc(NC(=O)Cn2nc3cc(C)nc(Nc4cc(C)cc(C)c4)n3c2=O)cc1
15 | 718 s | c1cc(-c2nc(-c3ccnc(N4CCOCC4)c3)no2)ccn1
16 | 677 s | Cn1c(=O)c(N2CCN(S(=O)(=O)c3cccc(Cl)c3)CC2)nc2ccncc21
17 | 708 s | CCC(C)NC(=O)c1nc(-c2ccnc(N3CCCCCC3)c2)no1 (configuration not stated)
18 | 939 s | COc1ccc(C2CC(=O)N(c3cccc(Cl)c3)C(=O)C2)cc1
19 | 620 s | Cc1c(Br)cncc1C(=O)O
20 | 769 s | CSc1cccc(NC(=O)Cn2c(-c3cnccn3)nc(C)c(C)c2=O)c1
21 | 1240 s | CCOc1ccccc1-c1csc(NC(=O)Cc2csc(-c3ccccc3)n2)n1
22 | 598 s | O=C(Nc1nnc(SCc2cccnc2)s1)c1cc(C2CC2)on1
23 | 776 s | CCOc1ccc(-c2nnc(SCC(=O)Nc3nnc(C)s3)o2)cc1

Row | RP-LC retention time | Structure (SMILES)
24 | 620 s | O=C(O)c1ccc(Nc2c(-c3cccc(O)c3)nc3cnccn23)cc1
25 | 794 s | COc1ccc(CC(=O)N2CCCC(c3nnc(-c4ccccc4F)s3)C2)cc1OC (configuration not stated)
26 | 738 s | O=C(NCC(O)(c1ccccc1)C(F)(F)F)C(=O)Nc1ccon1 (configuration not stated)
27 | 828 s | COc1ccc(-c2noc(C3CCCN3C(=O)c3cc(OC)c(OC)c(OC)c3)n2)cc1OC (configuration not stated)
28 | 829 s | Cc1csc(NC(=O)C2CCN(S(=O)(=O)c3cc(-c4noc(C)n4)cs3)CC2)n1
29 | 735 s | O=C(CSc1ccc(N2CCN(c3ccccc3)CC2)nn1)NCc1ccco1
30 | 579 s | Cc1ccc2c(Nc3cccc(C#N)c3)c(C(=O)N3CCCC3)cnc2n1
31 | 720 s | Cc1ccc(CNC(=O)Cc2nnc(-c3cnccn3)o2)cc1C
32 | 742 s | O=C(Nc1nccs1)c1cc(N2C(=O)C3C4CCC(C4)C3C2=O)ccc1Cl (configuration not stated)
33 | 723 s | Cc1[nH]nc(-c2ccc(S(=O)(=O)NC3CC3)o2)c1C
34 | 634 s | c1cc2c(cc1-c1noc(-c3ccc4c(c3)OCO4)n1)ncn2CCN1CCCC1
35 | 738 s | CS(=O)(=O)c1ccc2nc(NCCc3cccs3)sc2c1
36 | 585 s | CNC(=O)N1CCC(C2CCN(C(=O)CN3CCCC3=O)C2)CC1 (configuration not stated)
37 | 830 s | Cc1nc(N2CCCC2)c2c(C(=O)Nc3ccc(C)c(C)c3)c(C)oc2n1
38 | 788 s | CCCCOc1ccc(NC(=O)N(Cc2ccccn2)Cc2ccco2)cc1
39 | 917 s | O=C(Nc1cccc(C(F)(F)F)c1)N1CC(c2nc(-c3cccs3)no2)C1
40 | 567 s | COc1ccc(-c2ncn3c2C(=O)N(CC(=O)O)CC3)cc1
41 | 742 s | COCCOC(=O)C1=C(C)NC(=O)NC1c1cn(-c2ccccc2)nc1-c1cccs1 (configuration not stated)
42 | 701 s | O=C(Cn1nc2n(c1=O)CCCCC2)N1CCN(c2ccc(F)cc2)CC1
43 | 896 s | CCOC(=O)c1ccc(NC(=O)c2ccc3c(c2)N(C)C2CCCCN2C3=O)cc1 (configuration not stated)
44 | 752 s | CCc1noc(-c2cnc3nc(C)ccc3c2NCc2ccc(OC)cc2OC)n1
45 | 983 s | COc1cccc(-c2nc(-c3cn(Cc4ccc(F)cc4)nn3)no2)c1
46 | 593 s | COCCNC(=O)N1CCN(c2cc(-c3cccc(OC)c3)ncn2)CC1

Row | RP-LC retention time | Structure (SMILES)
47 | 805 s | Fc1cc(F)cc(-c2nnc(Cc3nc(-c4cccnc4)no3)o2)c1
48 | 651 s | O=c1c2cc(-c3ccccc3)nn2ccn1Cc1noc(CN2CCCCC2)n1
49 | 705 s | Cc1ccc(C)c(NC(=O)Cn2cnc3nc4c(cc3c2=O)CCCC4)c1
50 | 583 s | O=C(Cc1nc(-c2cnccn2)n[nH]1)NCc1ccccc1
51 | 1030 s | N#Cc1cccc(S(=O)(=O)N2CCc3nc(-c4ccc(F)cc4)ncc3C2)c1
52 | 1020 s | COc1ccc(-c2nc(-c3cccc(-c4ccnn4C)c3)no2)cc1OC
53 | 650 s | Fc1ccc(-c2noc(Cn3ccnc3)n2)cc1Br
54 | 1100 s | COC(=O)c1c(NC(=O)N2CCCN(c3nc4cccnc4s3)CC2)sc2c1CCCC2
55 | 650 s | Cc1noc(CNC(=O)C2CCN(C(=O)c3csc(-c4ccccc4)n3)CC2)n1
56 | 861 s | CCn1c(=O)sc2cc(S(=O)(=O)N3CCC(C(=O)NCc4ccc(C)o4)CC3)ccc21
57 | 1030 s | CCOc1ccc(S(=O)(=O)N2CCC(C(=O)Nc3ccc(F)c(Cl)c3)CC2)cc1
58 | 1010 s | COc1cccc(NC(=O)Cn2nc3cc(C)nc(Nc4ccccc4C)n3c2=O)c1
59 | 914 s | O=C(c1ccccc1F)N1CCN(C(=O)c2nnn3c2COC(c2ccc(Cl)cc2)C3)CC1 (configuration not stated)
60 | 719 s | Cc1c(Cl)cccc1N1CCn2c1nc1c2c(=O)n(CC(=O)O)c(=O)n1C
61 | 722 s | CCN(C(=O)Cc1c(C(=O)O)c(C)cn1C)c1ccccc1
62 | 823 s | Cc1ccc(N2CC(NC(=O)C(=O)c3c[nH]c4ccccc34)CC2=O)cc1 (configuration not stated)
63 | 1190 s | CCCN1C(=O)COc2ccc(-c3noc(-c4cccc(OC)c4)n3)cc21
64 | 761 s | CC(C)n1c(SCC(=O)N2CCCCC2)nnc1-c1ccc2c(c1)OCCCO2
65 | 634 s | Cc1ccc(CNC(=O)c2cc3c(n(-c4ccc(C(F)(F)F)cc4)c2=O)CCCC3=O)o1
66 | 1110 s | O=c1c2sccc2n(Cc2nc(-c3cccc(Br)c3)no2)c(=O)n1Cc1ccccc1
67 | 786 s | CCOc1cc(=O)n2c(c1C(=O)Nc1ccc(Cl)cc1C)CCCC2
